Literature values in US11612614B2, “Isomorphs of Remdesivir and methods for synthesis of same” (Anzalp Pharmasolutions Pvt. Ltd., priority 2020, dated 2023).
Entries after “also recorded” stand apart in the source; their conditions may differ.

Key:
[1] = not given; remark: listed apart in the source

- solubility in ethanol (ethanol): soluble
- chemical stability in aqueous media [1]: chemically unstable
Structure (SMILES): CCC(CC)COC(=O)[C@H](C)N[P@](=O)(OC[C@H]1O[C@@](C#N)(c2ccc3c(N)ncnn23)[C@H](O)[C@@H]1O)Oc1ccccc1 [Remdesivir, 2-ethylbutyl (2S)-2-[[[(2R,3S,4R,5R)-5-(4-aminopyrrolo[2,1-f][1,2,4]triazin-7-yl)-5-cyano-3,4-dihydroxyoxolan-2-yl]methoxy-phenoxyphosphoryl]amino]propanoate]
- solubility in water (water): practically insoluble; also recorded: relatively insoluble
